Measured values published in US20250295646A1, “METHODS OF USE OF T-TYPE CALCIUM CHANNEL MODULATORS” (Praxis Precision Medicines, Inc., priority 2022, published 2025).

Experiments:
[1] = Phase 1 single ascending dose (Part A) pharmacokinetics of 20 mg tablet formulation 3; settings: human, in vivo, oral, single 60 mg, geometric mean
Protocol: This was a 2-part, Phase 1 double blind, placebo controlled trial to assess the safety, tolerability, pharmacokinetics, and pharmacodynamics (including the KSS, the KDT, the SQSQ and 24-hour EEG recordings), of single, ascending (Part A: 20, 40, and 60 mg) and multiple, ascending (Part B: 20 and 40 mg for 8 days) doses of the 20 mg tablet (formulation 3) in healthy participants. […] Variability in Cmax and AUC increased with increasing dose following a single oral dose of the 20 mg tablet formulation (formulation 3) (FIG. 16).

[2] = system: adult patients with essential tremor; assay: Example 16 Part B: QUEST total score; type: in vivo, human; settings: for QUEST total score, LS mean change from randomization baseline (Day 42): Formula (I) group; for QUEST total score, LS mean change from pre-dose baseline: Part B OLT
Text: (§1) Patients were scheduled for Safety Follow-up on Day 70 (±1 day) in the clinic for the final clinical trial assessment.

[3] = system: adult patients with essential tremor; assay: Example 16: Clinical Global Impression (CGI-I, CGI-S); type: in vivo, human; settings: for participants with CGI-I much improved / participants with CGI-I score reflecting no change in symptoms: Part B OLT
Text: as §1

[4] = Example 16 Part B: treatment emergent adverse events, down-titration, discontinuation
Text: as §1

gamma band EEG power = assay: qEEG: eyes open / eyes closed gamma band power; type: in vivo, human; settings: Part B, beginning at 60 mg through 120 mg
Text: It appears a maximal effect in gamma reduction was not achieved.
The eyes open (EO) and eyes closed (EC) gamma absolute power for each individual was also estimated at specific time points across the study days.
The population PK model was used to generate Cave for NREM sigma absolute power and concentrations for EO and EC gamma absolute power. For NREM sigma absolute power, the Cave was computed for the final day of each dose level over the EEG collection interval. For EO and EC gamma absolute power, concentrations at 4 hours post-dose and 23.75 hours post-dose were generated on the final day of each dose level. The final population PKPD models for NREM sigma absolute power and EO and EC gamma absolute power were then used to generate corresponding EEG responses.

[5] = system: sigma band EEG power during NREM sleep; assay: EEG/PSG: sigma band EEG power during NREM sleep; type: in vivo, human; settings: 20 mg tablet and 40 mg tablet (FIG. 12)
[6] = Part B RWD (RWAS), Day 56, n 6, change from randomization baseline
[7] = Part B RWD (RWAS), Day 70, n 5, change from randomization baseline
[8] = Part B Randomized Withdrawal (N = 11), arm (Formula (I) or placebo) not stated
[9] = Part B, reported by the same patient

## CC(C)(C)NC(=O)CN1CCC(CNC(=O)c2cc(F)cc(Cl)c2)CC1 [compound of formula (I), N-((1-(2-(tert-butylamino)-2-oxoethyl)piperidin-4-yl)methyl)-3-chloro-5-fluorobenzamide]
[1]; N = 6
  Cmax: ~0.13 µg/mL
[1]; read-out: AUC24
  AUC: ~1.91 µg·h/mL
[2]; Day 70 follow-up
  QUEST total score, LS mean change from randomization baseline (Day 42): 1.741
[2]; Day 7
  QUEST total score, LS mean change from pre-dose baseline: −0.561
[2]; Day 21
  QUEST total score, LS mean change from pre-dose baseline: −5.933
[2]; Day 42
  QUEST total score, LS mean change from pre-dose baseline: −8.203
[2]; Part B RWD, Day 56
  QUEST total score, LS mean change from randomization baseline (Day 42): −1.322
[3]; Part A (FAS), Day 7, n 6
  CGI-I Score 0 not assessed: 0 n (%)
  CGI-I Score 1 very much improved: 0 n (%)
  CGI-I Score 2 Much improved: 1 n (%)
  CGI-I Score 3 minimally improved: 1 (16.7) n (%)
  CGI-I Score 4 no change: 4 (66.7) n (%)
  CGI-I Score 5 minimally worse: 0 n (%)
  CGI-I Score 6 much worse: 0 n (%)
  CGI-I Score 7 very much worse: 0 n (%)
[3]; Part A (FAS), Day 14, n 6
  CGI-I Score 0 not assessed: 0 n (%)
  CGI-I Score 1 very much improved: 0 n (%)
  CGI-I Score 2 Much improved: 1 n (%)
  CGI-I Score 3 minimally improved: 5 (83.3) n (%)
  CGI-I Score 4 no change: 0 n (%)
  CGI-I Score 5 minimally worse: 0 n (%)
  CGI-I Score 6 much worse: 0 n (%)
  CGI-I Score 7 very much worse: 0 n (%)
[3]; Part A, Day 7
  participants with CGI-I score not changed relative to pre-dose baseline: 66.7%
[3]; Part A, Day 14
  participants with CGI score minimally improved: 83.3%
  participants with CGI score much improved: 16.7%
[3]; Part B OLT (FAS), Day 7, n 12
  CGI-I Score 0 not assessed: 1 (8.3) n (%)
  CGI-I Score 1 very much improved: 0 n (%)
  CGI-I Score 2 Much improved: 1 n (%)
  CGI-I Score 3 minimally improved: 5 (41.7) n (%)
  CGI-I Score 4 no change: 4 (33.3) n (%)
  CGI-I Score 5 minimally worse: 1 (8.3) n (%)
  CGI-I Score 6 much worse: 0 n (%)
  CGI-I Score 7 very much worse: 0 n (%)
[3]; Part B OLT (FAS), Day 21, n 12
  CGI-I Score 0 not assessed: 0 n (%)
  CGI-I Score 1 very much improved: 1 (8.3) n (%)
  CGI-I Score 2 Much improved: 1 n (%)
  CGI-I Score 3 minimally improved: 5 (41.7) n (%)
  CGI-I Score 4 no change: 5 (41.7) n (%)
  CGI-I Score 5 minimally worse: 0 n (%)
  CGI-I Score 6 much worse: 0 n (%)
  CGI-I Score 7 very much worse: 0 n (%)
[3]; Part B OLT (FAS), Day 42, n 11
  CGI-I Score 0 not assessed: 0 n (%)
  CGI-I Score 1 very much improved: 0 n (%)
  CGI-I Score 2 Much improved: 4 n (%)
  CGI-I Score 3 minimally improved: 4 (36.4) n (%)
  CGI-I Score 4 no change: 3 (27.3) n (%)
  CGI-I Score 5 minimally worse: 0 n (%)
  CGI-I Score 6 much worse: 0 n (%)
  CGI-I Score 7 very much worse: 0 n (%)
[3]; Day 7
  participants with CGI-I much improved: 8.3%
  participants with CGI-I score reflecting no change in symptoms: 33.3%
[3]; Day 42
  participants with CGI-I much improved: 36.4%
  participants with CGI-I score reflecting no change in symptoms: 27.3%
[3]; [6]
  CGI-I Score 0 not assessed: 0 n (%)
  CGI-I Score 1 very much improved: 0 n (%)
  CGI-I Score 2 Much improved: 0 n (%)
  CGI-I Score 3 minimally improved: 1 (16.7) n (%)
  CGI-I Score 4 no change: 5 (83.3) n (%)
  CGI-I Score 5 minimally worse: 0 n (%)
  CGI-I Score 6 much worse: 0 n (%)
  CGI-I Score 7 very much worse: 0 n (%)
[3]; [7]
  CGI-I Score 0 not assessed: 0 n (%)
  CGI-I Score 1 very much improved: 0 n (%)
  CGI-I Score 2 Much improved: 0 n (%)
  CGI-I Score 3 minimally improved: 0 n (%)
  CGI-I Score 4 no change: 4 (80.0) n (%)
  CGI-I Score 5 minimally worse: 1 (20.0) n (%)
  CGI-I Score 6 much worse: 0 n (%)
  CGI-I Score 7 very much worse: 0 n (%)
[4]; Part B
  TEAE associated with discontinuation: Confusional state: 1
  TEAE associated with discontinuation: Cyst: 1
  TEAE associated with discontinuation: Disturbance in attention: 1
  TEAE leading to down titration: Confusional state: 1
  TEAE leading to down titration: Disturbance in attention: 1
  TEAE leading to down titration: Dizziness postural: 1
  TEAE leading to down titration: Paraesthesia: 1
  TEAE leading to down titration: Somnolence: 1
  participants who discontinued administration: three of 14 participants
  participants who down-titrated: Four of 14 participants
[4]; Part B Open Label (N = 14)
  TEAE Anxiety, participants: 1
  TEAE Cognitive Disorder, participants: 1
  TEAE Constipation, participants: 6
  TEAE Dizziness, participants: 4
  TEAE Fatigue, participants: 3
  TEAE Headache, participants: 1
  TEAE Insomnia, participants: 2
  TEAE Paraesthesia, participants: 2
[4]; [8]
  TEAE Fatigue, participants: 1
  TEAE Headache, participants: 1
[4]; Part B, essential tremor patients
  dosing well-tolerated with titration: up to 120 mg
[4]; [9]
  TEAE associated with discontinuation: Gait disturbances: 1
  TEAE associated with discontinuation: Hypotension: 1
  TEAE associated with discontinuation: Muscle fatigue: 1
  TEAE associated with discontinuation: Speech disorder: 1

## CC(C)(C)NC(=O)CN1CCC(CNC(=O)c2cc(F)cc(Cl)c2)CC1.Cl [compound of formula (II), N-((1-(2-(tert-butylamino)-2-oxoethyl)piperidin-4-yl)methyl)-3-chloro-5-fluorobenzamide hydrochloride]
Gamma band EEG power
  gamma band EEG power: dose-related reduction
[5]
  NREM sigma band compared to placebo control: decrease
